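Abbreviation: GI50, concentration required for 50% inhibition of growth. TGI denotes the concentration required for complete inhibition of growth.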
Legend:
Experiment in all cases: DTP human tumour cell line panel, 384-well format
786-0 renal = test system: 786-0 renal
COLO 205 colon = test system: COLO 205 colon
OVCAR-3 ovarian = test system: OVCAR-3 ovarian
IGROV1 ovarian = test system: IGROV1 ovarian
A549 NSCLC = test system: A549 NSCLC
HS 578T breast = test system: HS 578T breast
SNB-75 CNS = test system: SNB-75 CNS
U251 glioblastoma = test system: U251 glioblastoma
OVCAR-4 ovarian = test system: OVCAR-4 ovarian
NCI-H522 lung = test system: NCI-H522 lung
NCI/ADR-RES ovarian = test system: NCI/ADR-RES ovarian
HCT-15 colon = test system: HCT-15 colon
SK-MEL-2 melanoma = test system: SK-MEL-2 melanoma
UACC-257 melanoma = test system: UACC-257 melanoma
SF-539 CNS = test system: SF-539 CNS
M14 melanoma = test system: M14 melanoma
KM12 colon = test system: KM12 colon
NCI-H23 lung = test system: NCI-H23 lung
HT29 colon = test system: HT29 colon
SNB-19 CNS = test system: SNB-19 CNS
NCI-H226 lung = test system: NCI-H226 lung
HL-60(TB) leukemia = test system: HL-60(TB) leukemia
CAKI-1 renal = test system: CAKI-1 renal
RXF 393 renal = test system: RXF 393 renal
PC-3 prostate = test system: PC-3 prostate
MDA-MB-468 breast = test system: MDA-MB-468 breast
NCI-H322M lung = test system: NCI-H322M lung
CCRF-CEM leukemia = test system: CCRF-CEM leukemia
MCF7 breast = test system: MCF7 breast
SF-268 CNS = test system: SF-268 CNS
MDA-MB-435 melanoma = test system: MDA-MB-435 melanoma
NCI-H460 NSCLC = test system: NCI-H460 NSCLC
MALME-3M melanoma = test system: MALME-3M melanoma
HOP-92 NSCLC = test system: HOP-92 NSCLC
MOLT-4 leukemia = test system: MOLT-4 leukemia
SF-295 CNS = test system: SF-295 CNS
HOP-62 NSCLC = test system: HOP-62 NSCLC
RPMI-8226 leukemia = test system: RPMI-8226 leukemia
K-562 leukemia = test system: K-562 leukemia
BT-549 breast = test system: BT-549 breast
A498 renal = test system: A498 renal
DU-145 prostate = test system: DU-145 prostate
ACHN renal = test system: ACHN renal
HCT-116 colon = test system: HCT-116 colon
UACC-62 melanoma = test system: UACC-62 melanoma
SW-620 colon = test system: SW-620 colon
SK-MEL-5 melanoma = test system: SK-MEL-5 melanoma
EKVX NSCLC = test system: EKVX NSCLC
TK-10 renal = test system: TK-10 renal
SN12C renal = test system: SN12C renal
SK-MEL-28 melanoma = test system: SK-MEL-28 melanoma
LOX IMVI melanoma = test system: LOX IMVI melanoma
OVCAR-8 ovarian = test system: OVCAR-8 ovarian
SK-OV-3 ovarian = test system: SK-OV-3 ovarian
HCC-2998 colon = test system: HCC-2998 colon

## O=C(Nc1cccc(Br)c1)Oc1cccc2cccnc12
786-0 renal
  GI50: 16.3 µM
  TGI: 33.9 µM
COLO 205 colon
  GI50: 2.61 µM
  TGI: 4.87 µM
OVCAR-3 ovarian
  GI50: 2.12 µM
  TGI: 3.92 µM
IGROV1 ovarian
  GI50: 2.23 µM
  TGI: 4.46 µM
A549 NSCLC
  GI50: 13.8 µM
  TGI: 32.8 µM
HS 578T breast
  GI50: 16.7 µM
  TGI: 39.8 µM
SNB-75 CNS
  GI50: 4.08 µM
  TGI: 12.9 µM
U251 glioblastoma
  GI50: 5.89 µM
  TGI: 17.4 µM
OVCAR-4 ovarian
  GI50: 4.82 µM
  TGI: 14.9 µM
NCI-H522 lung
  GI50: 2.18 µM
  TGI: 4.32 µM
NCI/ADR-RES ovarian
  GI50: 2.43 µM
  TGI: 4.56 µM
HCT-15 colon
  GI50: 3.4 µM
  TGI: 9.07 µM
SK-MEL-2 melanoma
  GI50: 2.8 µM
  TGI: 5.41 µM
UACC-257 melanoma
  GI50: 2.28 µM
  TGI: 4.16 µM
SF-539 CNS
  GI50: 5.79 µM
  TGI: 17.1 µM
M14 melanoma
  GI50: 2.78 µM
  TGI: 6.06 µM
KM12 colon
  GI50: 5.99 µM
  TGI: 18.1 µM
NCI-H23 lung
  GI50: 2.01 µM
  TGI: 3.73 µM
HT29 colon
  GI50: 8.98 µM
  TGI: 21.2 µM
SNB-19 CNS
  GI50: 9.79 µM
  TGI: 38.3 µM
NCI-H226 lung
  GI50: 1.74 µM
  TGI: 3.42 µM
HL-60(TB) leukemia
  GI50: 1.73 µM
  TGI: 3.11 µM
CAKI-1 renal
  GI50: 2.35 µM
  TGI: 4.98 µM
RXF 393 renal
  GI50: 3.5 µM
  TGI: 7.85 µM
PC-3 prostate
  GI50: 2.79 µM
  TGI: 5.48 µM
MDA-MB-468 breast
  GI50: 2.82 µM
  TGI: 4.48 µM
NCI-H322M lung
  GI50: 17.5 µM
  TGI: 43 µM
CCRF-CEM leukemia
  GI50: 1.94 µM
  TGI: 3.43 µM
MCF7 breast
  GI50: 2.23 µM
  TGI: 4.47 µM
SF-268 CNS
  GI50: 3.69 µM
  TGI: 9.11 µM
MDA-MB-435 melanoma
  GI50: 12.6 µM
  TGI: 30.4 µM
NCI-H460 NSCLC
  GI50: 2.76 µM
  TGI: 6.44 µM
MALME-3M melanoma
  GI50: 4.16 µM
  TGI: 13.1 µM
HOP-92 NSCLC
  GI50: 4.02 µM
  TGI: 10.5 µM
MOLT-4 leukemia
  GI50: 1.99 µM
  TGI: 3.47 µM
SF-295 CNS
  GI50: 7.95 µM
  TGI: 23.6 µM
HOP-62 NSCLC
  GI50: 7.61 µM
  TGI: 18.8 µM
RPMI-8226 leukemia
  GI50: 2.26 µM
  TGI: 3.75 µM
K-562 leukemia
  GI50: 23.5 µM
  TGI: 50.3 µM
BT-549 breast
  GI50: 6.95 µM
  TGI: 22 µM
A498 renal
  GI50: 12.9 µM
  TGI: 26.3 µM
DU-145 prostate
  GI50: 8.98 µM
  TGI: 36.7 µM
ACHN renal
  GI50: 6.26 µM
  TGI: 27.1 µM
HCT-116 colon
  GI50: 2.4 µM
  TGI: 4.37 µM
UACC-62 melanoma
  GI50: 3.74 µM
  TGI: 9.42 µM
SW-620 colon
  GI50: 6.19 µM
  TGI: 36.7 µM
SK-MEL-5 melanoma
  GI50: 5.81 µM
  TGI: 17.9 µM
EKVX NSCLC
  GI50: 2.39 µM
  TGI: 4.96 µM
TK-10 renal
  GI50: 6.51 µM
  TGI: 33.5 µM
SN12C renal
  GI50: 4.46 µM
  TGI: 15.4 µM
SK-MEL-28 melanoma
  GI50: 4.56 µM
  TGI: 15.1 µM
LOX IMVI melanoma
  GI50: 2.95 µM
  TGI: 10.8 µM
OVCAR-8 ovarian
  GI50: 2.56 µM
  TGI: 5.3 µM
SK-OV-3 ovarian
  GI50: 17.9 µM
  TGI: 34.3 µM
HCC-2998 colon
  GI50: 16.2 µM
  TGI: 30.1 µM

Reference: PubChem BioAssay (NCI)
